In PubChem BioAssay (NCI):
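Interpolation was linear, between the two tested concentrations surrounding the appropriate level; five concentrations were tested over 48 hours in 96-well plates. TGI is the concentration that stops growth completely.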

What was measured:
Test in all cases: growth of human tumour cells (NCI), 48 h
UACC-62 melanoma = tested on: UACC-62 melanoma
NCI-H522 lung = tested on: NCI-H522 lung
U251 CNS = tested on: U251 CNS
OVCAR-3 ovarian = tested on: OVCAR-3 ovarian
SW-620 colon = tested on: SW-620 colon
LOX IMVI melanoma = tested on: LOX IMVI melanoma
RXF 393 renal = tested on: RXF 393 renal
SNB-19 CNS = tested on: SNB-19 CNS
HCC-2998 colon = tested on: HCC-2998 colon
HOP-62 NSCLC = tested on: HOP-62 NSCLC
SNB-78 CNS = tested on: SNB-78 CNS
NCI-H226 lung = tested on: NCI-H226 lung
DLD-1 colon = tested on: DLD-1 colon
COLO 205 colon = tested on: COLO 205 colon
KM20L2 colon = tested on: KM20L2 colon
A498 renal = tested on: A498 renal
CCRF-CEM leukemia = tested on: CCRF-CEM leukemia
ACHN renal = tested on: ACHN renal
DMS 273 small cell lung = tested on: DMS 273 small cell lung
SNB-75 CNS = tested on: SNB-75 CNS
RPMI-8226 leukemia = tested on: RPMI-8226 leukemia
K-562 leukemia = tested on: K-562 leukemia
KM12 colon = tested on: KM12 colon
786-0 renal = tested on: 786-0 renal
LXFL 529 NSCLC = tested on: LXFL 529 NSCLC
HCT-116 colon = tested on: HCT-116 colon
SF-268 CNS = tested on: SF-268 CNS
A549 NSCLC = tested on: A549 NSCLC
SF-539 CNS = tested on: SF-539 CNS
HT29 colon = tested on: HT29 colon
OVCAR-4 ovarian = tested on: OVCAR-4 ovarian
CAKI-1 renal = tested on: CAKI-1 renal
TK-10 renal = tested on: TK-10 renal
IGROV1 ovarian = tested on: IGROV1 ovarian
MOLT-4 leukemia = tested on: MOLT-4 leukemia
NCI-H460 lung = tested on: NCI-H460 lung
DMS 114 small cell lung = tested on: DMS 114 small cell lung
SK-MEL-28 melanoma = tested on: SK-MEL-28 melanoma
HL-60(TB) leukemia = tested on: HL-60(TB) leukemia
UACC-257 melanoma = tested on: UACC-257 melanoma
OVCAR-8 ovarian = tested on: OVCAR-8 ovarian
SK-OV-3 ovarian = tested on: SK-OV-3 ovarian
M19-MEL melanoma = tested on: M19-MEL melanoma
UO-31 renal = tested on: UO-31 renal
SK-MEL-5 melanoma = tested on: SK-MEL-5 melanoma
MALME-3M melanoma = tested on: MALME-3M melanoma
NCI-H23 lung = tested on: NCI-H23 lung
HOP-18 NSCLC = tested on: HOP-18 NSCLC
OVCAR-5 ovarian = tested on: OVCAR-5 ovarian
HCT-15 colon = tested on: HCT-15 colon
SN12C renal = tested on: SN12C renal
SF-295 CNS = tested on: SF-295 CNS
M14 melanoma = tested on: M14 melanoma
SK-MEL-2 melanoma = tested on: SK-MEL-2 melanoma
DU-145 prostate = tested on: DU-145 prostate
SR leukemia = tested on: SR leukemia
HOP-92 NSCLC = tested on: HOP-92 NSCLC
MCF7 breast = tested on: MCF7 breast
BT-549 breast = tested on: BT-549 breast
HS 578T breast = tested on: HS 578T breast
PC-3 prostate = tested on: PC-3 prostate
MDA-MB-435 = tested on: MDA-MB-435
MDA-MB-231 breast = tested on: MDA-MB-231 breast
EKVX NSCLC = tested on: EKVX NSCLC
T-47D breast = tested on: T-47D breast
MDA-N = tested on: MDA-N
NCI/ADR-RES ovarian = tested on: NCI/ADR-RES ovarian

COC(OC)c1cccc2c1C(=O)CCC1(CC2)OCCCCO1
TGI (UACC-62 melanoma): > 100 µM
TGI (NCI-H522 lung): > 100 µM
TGI (U251 CNS): > 100 µM
TGI (OVCAR-3 ovarian): > 100 µM
TGI (SW-620 colon): > 100 µM
TGI (LOX IMVI melanoma): > 100 µM
TGI (RXF 393 renal): > 100 µM
TGI (SNB-19 CNS): > 100 µM
TGI (HCC-2998 colon): > 100 µM
TGI (HOP-62 NSCLC): > 100 µM
TGI (SNB-78 CNS): > 100 µM
TGI (NCI-H226 lung): > 100 µM
TGI (DLD-1 colon): > 100 µM
TGI (COLO 205 colon): > 100 µM
TGI (KM20L2 colon): > 100 µM
TGI (A498 renal): > 100 µM
TGI (CCRF-CEM leukemia): > 100 µM
TGI (ACHN renal): > 100 µM
TGI (DMS 273 small cell lung): > 100 µM
TGI (SNB-75 CNS): > 100 µM
TGI (RPMI-8226 leukemia): > 100 µM
TGI (K-562 leukemia): > 100 µM
TGI (KM12 colon): > 100 µM
TGI (786-0 renal): > 100 µM
TGI (LXFL 529 NSCLC): > 100 µM
TGI (HCT-116 colon): > 100 µM
TGI (SF-268 CNS): > 100 µM
TGI (A549 NSCLC): > 100 µM
TGI (SF-539 CNS): > 100 µM
TGI (HT29 colon): > 100 µM
TGI (OVCAR-4 ovarian): > 100 µM
TGI (CAKI-1 renal): > 100 µM
TGI (TK-10 renal): > 100 µM
TGI (IGROV1 ovarian): > 100 µM
TGI (MOLT-4 leukemia): > 100 µM
TGI (NCI-H460 lung): > 100 µM
TGI (DMS 114 small cell lung): > 100 µM
TGI (SK-MEL-28 melanoma): > 100 µM
TGI (HL-60(TB) leukemia): > 100 µM
TGI (UACC-257 melanoma): > 100 µM
TGI (OVCAR-8 ovarian): > 100 µM
TGI (SK-OV-3 ovarian): > 100 µM
TGI (M19-MEL melanoma): > 100 µM
TGI (UO-31 renal): > 100 µM
TGI (SK-MEL-5 melanoma): > 100 µM
TGI (MALME-3M melanoma): > 100 µM
TGI (NCI-H23 lung): > 100 µM
TGI (HOP-18 NSCLC): > 100 µM
TGI (OVCAR-5 ovarian): > 100 µM
TGI (HCT-15 colon): > 100 µM
TGI (SN12C renal): > 100 µM
TGI (SF-295 CNS): > 100 µM
TGI (M14 melanoma): > 100 µM
TGI (SK-MEL-2 melanoma): > 100 µM

C=CCN(C(C)=O)c1cc(OCc2ccccc2)c2c(c1)c(C)cn2S(=O)(=O)c1ccccc1
TGI (UACC-62 melanoma): > 76.9 µM
TGI (NCI-H522 lung): > 55.3 µM
TGI (U251 CNS): > 100 µM
TGI (OVCAR-3 ovarian): > 27.7 µM
TGI (SW-620 colon): > 100 µM
TGI (LOX IMVI melanoma): 50.1 µM
TGI (RXF 393 renal): > 100 µM
TGI (DU-145 prostate): > 100 µM
TGI (SNB-19 CNS): > 100 µM
TGI (HCC-2998 colon): > 100 µM
TGI (HOP-62 NSCLC): > 100 µM
TGI (NCI-H226 lung): > 31.1 µM
TGI (COLO 205 colon): 12.6 µM
TGI (A498 renal): 26.3 µM
TGI (SR leukemia): 4.21 µM
TGI (CCRF-CEM leukemia): > 27.1 µM
TGI (ACHN renal): 51.4 µM
TGI (HOP-92 NSCLC): > 100 µM
TGI (SNB-75 CNS): > 100 µM
TGI (MCF7 breast): 31 µM
TGI (RPMI-8226 leukemia): > 28.5 µM
TGI (BT-549 breast): > 100 µM
TGI (HS 578T breast): > 70.4 µM
TGI (K-562 leukemia): > 54.8 µM
TGI (KM12 colon): > 100 µM
TGI (PC-3 prostate): > 78.4 µM
TGI (786-0 renal): > 100 µM
TGI (MDA-MB-435): > 46.3 µM
TGI (MDA-MB-231 breast): > 70.8 µM
TGI (HCT-116 colon): > 100 µM
TGI (SF-268 CNS): > 100 µM
TGI (A549 NSCLC): > 100 µM
TGI (SF-539 CNS): > 100 µM
TGI (HT29 colon): > 100 µM
TGI (OVCAR-4 ovarian): > 100 µM
TGI (CAKI-1 renal): > 54.7 µM
TGI (TK-10 renal): > 100 µM
TGI (IGROV1 ovarian): > 100 µM
TGI (MOLT-4 leukemia): > 22 µM
TGI (NCI-H460 lung): > 100 µM
TGI (SK-MEL-28 melanoma): > 100 µM
TGI (HL-60(TB) leukemia): > 100 µM
TGI (EKVX NSCLC): > 50.3 µM
TGI (UACC-257 melanoma): > 100 µM
TGI (OVCAR-8 ovarian): > 100 µM
TGI (T-47D breast): > 35 µM
TGI (SK-OV-3 ovarian): > 100 µM
TGI (UO-31 renal): > 100 µM
TGI (SK-MEL-5 melanoma): 21.5 µM
TGI (MALME-3M melanoma): 34.2 µM
TGI (NCI-H23 lung): > 100 µM
TGI (OVCAR-5 ovarian): > 100 µM
TGI (MDA-N): > 74.7 µM
TGI (HCT-15 colon): > 100 µM
TGI (NCI/ADR-RES ovarian): > 100 µM
TGI (SN12C renal): > 100 µM
TGI (SF-295 CNS): > 100 µM
TGI (M14 melanoma): > 100 µM
TGI (SK-MEL-2 melanoma): 12.3 µM
